Legend:
[1] = target: T1, α3β3γ complex of BF1 (F1-ATPase from Bacillus subtilis) (Bacillus subtilis, UniProt P37808+P37809); assay: residual initial ATPase activity ([…]-4 s) after preincubation with MgADP; assay type: biochemical; details: read-out: % inhibition at 1:1 MgADP (5 μM)
T1 construct: gene atpD; recombinant α3β3γ subcomplex without δ and ε; His6-tag at N-terminus of β (kept); initiation codons of α and γ changed to ATG; expressed in E. coli BL21(DE3) from pET21-BF1; nucleotide-free; with ATP synthase gamma chain

[2] = target: T2, α3β3γε complex of BF1 (F1-ATPase from Bacillus subtilis) (Bacillus subtilis, UniProt P37808+P37809); assay: as above; assay type: biochemical; details: read-out: % inhibition at 1:1 MgADP (5 μM)
T2 construct: gene atpD; recombinant α3β3γ (His6-tag at N-terminus of β, kept) reconstituted with excess separately purified BF1 ε subunit; no δ; E. coli expression; with ATP synthase gamma chain; ATP synthase epsilon chain
T2 sequence (P37812 whole entry): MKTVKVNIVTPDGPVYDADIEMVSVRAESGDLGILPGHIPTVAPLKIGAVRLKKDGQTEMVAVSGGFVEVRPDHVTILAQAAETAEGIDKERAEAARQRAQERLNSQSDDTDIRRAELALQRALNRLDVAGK
T2 sequence (P37809 whole entry): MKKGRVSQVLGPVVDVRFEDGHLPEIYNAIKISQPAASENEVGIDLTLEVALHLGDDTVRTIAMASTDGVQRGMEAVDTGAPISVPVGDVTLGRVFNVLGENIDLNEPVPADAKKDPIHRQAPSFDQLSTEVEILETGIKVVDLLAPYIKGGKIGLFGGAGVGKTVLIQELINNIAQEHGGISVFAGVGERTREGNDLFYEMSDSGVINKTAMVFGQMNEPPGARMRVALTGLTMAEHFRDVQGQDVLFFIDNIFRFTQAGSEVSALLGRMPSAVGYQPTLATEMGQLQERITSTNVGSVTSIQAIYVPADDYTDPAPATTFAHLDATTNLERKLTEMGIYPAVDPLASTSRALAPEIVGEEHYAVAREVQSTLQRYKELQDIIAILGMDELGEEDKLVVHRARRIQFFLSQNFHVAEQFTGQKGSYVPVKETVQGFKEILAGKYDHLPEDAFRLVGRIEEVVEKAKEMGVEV
T2 sequence (P37808 2-502): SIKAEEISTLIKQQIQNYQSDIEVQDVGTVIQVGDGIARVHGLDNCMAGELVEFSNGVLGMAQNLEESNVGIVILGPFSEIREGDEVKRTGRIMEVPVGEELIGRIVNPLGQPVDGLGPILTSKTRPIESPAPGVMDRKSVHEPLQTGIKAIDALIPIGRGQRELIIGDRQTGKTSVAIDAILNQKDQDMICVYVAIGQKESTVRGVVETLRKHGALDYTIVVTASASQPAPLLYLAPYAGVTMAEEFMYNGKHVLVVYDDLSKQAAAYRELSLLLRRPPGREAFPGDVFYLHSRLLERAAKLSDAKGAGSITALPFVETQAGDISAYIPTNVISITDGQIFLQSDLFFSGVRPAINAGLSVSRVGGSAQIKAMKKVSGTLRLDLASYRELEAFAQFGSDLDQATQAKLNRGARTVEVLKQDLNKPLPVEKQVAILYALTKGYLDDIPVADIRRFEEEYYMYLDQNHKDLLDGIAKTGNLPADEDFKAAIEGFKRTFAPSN
T2 sequence (P37810 whole entry, further chain): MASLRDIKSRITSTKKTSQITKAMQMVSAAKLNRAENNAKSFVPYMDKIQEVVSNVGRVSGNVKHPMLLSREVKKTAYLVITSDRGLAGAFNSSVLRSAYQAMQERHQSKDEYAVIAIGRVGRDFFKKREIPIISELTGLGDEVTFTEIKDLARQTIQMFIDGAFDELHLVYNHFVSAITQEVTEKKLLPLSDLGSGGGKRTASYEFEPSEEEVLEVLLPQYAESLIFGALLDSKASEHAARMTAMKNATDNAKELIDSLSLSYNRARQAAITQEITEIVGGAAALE

T1 sequence (P37809 whole entry): as the sequence (P37809 whole entry) above
T1 sequence (P37808 2-502): as the sequence (P37808 2-502) above
T1 sequence (P37810 whole entry, further chain): as the sequence (P37810 whole entry, further chain) above

Nc1ncnc2c1ncn2[C@@H]1O[C@H](COP(=O)(O)OP(=O)(O)O)[C@@H](O)[C@H]1O [MgADP]
inhibition at 5 µM [1]: ~50% | inhibition at 5 µM [2]: ~20%
